Reference: ChEMBL document CHEMBL3228010, “Potential antitumor agents. 29. Quantitative structure-activity relationships for the antileukemic bisquaternary ammonium heterocycles” (J Med Chem, 1979)

Experiments:
[1] = tested on: L1210; experiment: Antitumor activity against mouse L1210 cells […] in ip dosed C3H X DBA2 F1 hybrid mouse on day 0 and dosed at LD10 level once daily on days 1 to 5 assessed as increase in life span relative to control; type: functional
[2] = Displacement of ethidium from poly[d(A)]-poly[d(T)] DNA (unknown origin) by fluorimetric method
[3] = tested on: L1210; experiment: Antitumor activity against mouse L1210 cells […] in ip dosed C3H X DBA2 F1 hybrid mouse on day 0 and dosed once daily on days 1 to 5 assessed as increase in life span relative to control; type: functional
[4] = Lipophilic-hydrophilic balance, Rm of the compound by partition chromatography; type: physicochemical
[5] = tested on: Mus musculus; experiment: Toxicity in ip dosed C3H X DBA2 F1 hybrid mouse […] with mouse L1210 cells on day 0 and dosed once daily on days 1 to 5 measured after 50 days; type: organism-based; details: in vivo, 1200 h
[6] = Displacement of ethidium from poly[d(A-T)]-poly[d(A-T)] DNA by fluorimetric method
[7] = species on record: Bos taurus; experiment: Displacement of ethidium from calf thymus DNA by fluorimetric method
[8] = Displacement of ethidium from poly[d(G-C)]-poly[d(G-C)] DNA (unknown origin) by fluorimetric method

SMILES	log(ILSmax) [1]	C50 [2]	D40 [3]	Rm [4]	LD10 [5]	C50 [6]	C50 [7]	C50 [8]
C[n+]1ccc(Nc2ccc(NC(=O)c3ccc(C(=O)Nc4ccc(Nc5cc[n+](C)cc5)cc4)cc3)cc2)cc1.Cc1ccc(S(=O)(=O)[O-])cc1.Cc1ccc(S(=O)(=O)[O-])cc1	2.33	0.043 µM	0.3 mg/kg	0.07	3.1 mg/kg	0.14 µM	1.3 µM	1.8 µM
C[n+]1ccc(Nc2ccc(NC(=O)c3ccc(Nc4cc[n+](C)c5ccc(N)cc45)cc3)cc2N)cc1.[I-].[I-]	2.18	0.067 µM	0.7 mg/kg	-0.03	3 mg/kg	0.23 µM	0.71 µM	1.3 µM
CC[n+]1cccc(NC(=O)c2ccc(NC(=O)c3ccc(C(=O)Nc4ccc(C(=O)Nc5ccc[n+](CC)c5)cc4)cc3)cc2)c1.Cc1ccc(S(=O)(=O)[O-])cc1.Cc1ccc(S(=O)(=O)[O-])cc1	2.24	0.11 µM	9.8 mg/kg	-0.32	33 mg/kg	0.4 µM	0.48 µM	0.9 µM
Cc1cc(C(=O)Nc2ccc[n+](C)c2)ccc1NC(=O)c1ccc(C(=O)Nc2ccc(C(=O)Nc3ccc[n+](C)c3)cc2C)cc1.Cc1ccc(S(=O)(=O)[O-])cc1.Cc1ccc(S(=O)(=O)[O-])cc1	1.79	0.35 µM	27 mg/kg	0.12	40 mg/kg	6 µM	11.7 µM	16.7 µM
C[n+]1cccc(NC(=O)c2ccc(NC(=O)c3ccc(C(=O)Nc4ccc[n+](C)c4)cc3)cc2)c1.Cc1ccc(S(=O)(=O)[O-])cc1.Cc1ccc(S(=O)(=O)[O-])cc1	<1.4	0.325 µM		-0.11	4 mg/kg	7.7 µM	11.2 µM	22 µM
C/C(=N\NC(=N)N)c1ccc(C(=O)Nc2ccc(Nc3cc[n+](C)c4ccc(N)cc34)cc2)cc1.Cc1ccc(S(=O)(=O)O)cc1.Cc1ccc(S(=O)(=O)[O-])cc1	2.37	0.057 µM	2.6 mg/kg	-0.1	40 mg/kg	0.12 µM	0.4 µM	0.52 µM
C[n+]1cccc(-c2ccc(NC(=O)c3ccc(C(=O)Nc4ccc(-c5ccc(-c6ccc(-c7ccc[n+](C)c7)cc6)cc5)cc4)cc3)cc2)c1.Cc1ccc(S(=O)(=O)[O-])cc1.Cc1ccc(S(=O)(=O)[O-])cc1	2.1	0.16 µM	17.9 mg/kg	-0.75	65 mg/kg	0.22 µM	0.29 µM	0.37 µM
C[n+]1ccc(Nc2ccc(NC(=O)c3ccc(Nc4cc[n+](C)c5ccc(N)cc45)cc3N)cc2)cc1.[I-].[I-]	2.45	0.039 µM	2.9 mg/kg	0.01	20 mg/kg	0.1 µM	0.49 µM	1.1 µM
C[n+]1ccc(Nc2ccc(NC(=O)c3ccc(Nc4cc[n+](C)c5ccc(N)cc45)cc3)cc2)cc1.[Br-].[Br-]	2.35	0.048 µM	1.2 mg/kg	0.07	12 mg/kg	0.09 µM	0.66 µM	1.05 µM
C[n+]1cccc(NC(=O)c2ccc(C(=O)Nc3ccc[n+](C)c3)cc2)c1.Cc1ccc(S(=O)(=O)[O-])cc1.Cc1ccc(S(=O)(=O)[O-])cc1	<1.4	3.8 µM		0	5 mg/kg	63 µM	61 µM	80 µM
CC[n+]1ccc(Nc2ccc(NC(=O)c3ccc(Nc4cc[n+](CC)c5cc(N)ccc45)cc3N)cc2)cc1.[Br-].[Br-]	2.39	0.054 µM	1.4 mg/kg	0.07	11 mg/kg	0.13 µM	0.52 µM	1.11 µM
C[n+]1cccc(NC(=O)c2ccc(NC(=O)C34CCC(C(=O)Nc5ccc(C(=O)Nc6ccc[n+](C)c6)cc5)(CC3)CC4)cc2)c1.Cc1ccc(S(=O)(=O)[O-])cc1.Cc1ccc(S(=O)(=O)[O-])cc1	2	1.6 µM	4.3 mg/kg	0.31	24 mg/kg	5.3 µM	6.8 µM	11 µM
C[n+]1ccc(Nc2ccc(NC(=O)c3ccc(Nc4cc[n+](C)c5ccccc45)cc3)cc2N)cc1.[I-].[I-]	1.85	0.052 µM	2.8 mg/kg	0.24	8 mg/kg	0.43 µM	2.25 µM	4.76 µM
C[n+]1ccc(Nc2ccc(NC(=O)c3ccc(Nc4cc[n+](C)c5ccccc45)cc3N)cc2N)cc1.[I-].[I-]	1.78	0.12 µM	15 mg/kg	0.08	18 mg/kg	0.79 µM	1.76 µM	3.17 µM
C[n+]1ccc(Nc2ccc(NC(=O)c3ccc(Nc4cc[n+](C)c5ccccc45)cc3)cc2)cc1.[Br-].[Br-]	2.23	0.036 µM	2 mg/kg	0.29	13 mg/kg	0.16 µM	1.4 µM	3 µM
C[n+]1ccc(Nc2ccc(NC(=O)c3ccc(Nc4cc[n+](C)c5c(Cl)cccc45)cc3)cc2)cc1.Cc1ccc(S(=O)(=O)[O-])cc1.Cc1ccc(S(=O)(=O)[O-])cc1	1.7	0.038 µM	50 mg/kg	0.51	55 mg/kg	0.29 µM	1.1 µM	1.4 µM
CCC[n+]1cccc(NC(=O)c2ccc(NC(=O)c3ccc(C(=O)Nc4ccc(C(=O)Nc5ccc[n+](CCC)c5)cc4)cc3)cc2)c1.Cc1ccc(S(=O)(=O)[O-])cc1.Cc1ccc(S(=O)(=O)[O-])cc1	2.06	0.12 µM	12.9 mg/kg	0.13	27 mg/kg	0.39 µM	0.44 µM	0.9 µM
CCCC[n+]1cccc(NC(=O)c2ccc(NC(=O)c3ccc(C(=O)Nc4ccc(C(=O)Nc5ccc[n+](CCCC)c5)cc4)cc3)cc2)c1.Cc1ccc(S(=O)(=O)[O-])cc1.Cc1ccc(S(=O)(=O)[O-])cc1	1.76	0.14 µM	30 mg/kg	0.51	58 mg/kg	0.41 µM	0.46 µM	0.93 µM
C[n+]1ccccc1Nc1ccc(NC(=O)c2ccc(C(=O)Nc3ccc(Nc4cccc[n+]4C)cc3)cc2)cc1.Cc1ccc(S(=O)(=O)[O-])cc1.Cc1ccc(S(=O)(=O)[O-])cc1	<1.4	0.15 µM		0.13	16 mg/kg	2.8 µM	5.6 µM	8.8 µM
C[n+]1ccc(Nc2ccc(NC(=O)c3ccc(Nc4cc[n+](C)c5c(N)cccc45)cc3)cc2)cc1.[I-].[I-]	2.48	0.056 µM	0.9 mg/kg	-0.1	60 mg/kg	0.2 µM	0.85 µM	1.43 µM
COc1cc(NC(=O)c2ccc(C(=O)Nc3ccc(C(=O)Nc4ccc[n+](C)c4)c(OC)c3)cc2)ccc1C(=O)Nc1ccc[n+](C)c1.Cc1ccc(S(=O)(=O)[O-])cc1.Cc1ccc(S(=O)(=O)[O-])cc1	1.78	0.18 µM	15 mg/kg	0.15	41 mg/kg	0.3 µM	0.4 µM	0.35 µM
